Patent US20240408223A1 (REGENERON PHARMACEUTICALS, INC., priority 2017, published 2024)
Converted amounts (≈) assume the structure as drawn. Read-outs that look alike come from different tables or passages of the source. *1 amine or outer side, *2 acyl side, *3 side chain or, on linkers, in order; H or OH if unused. Where a SMILES comes first, the peptide text is derived from it. [ ]: non-standard residue; d: D form. The star is where a group is joined. X2 = O=C(COC1CCCCCc2c1nnn2[C@@H]1O[C@H](CO)[C@H](O)[C@H](O)[C@H]1O)*; NH(1-deoxy-D-glucityl) = OC[C@@H](O)[C@@H](O)[C@H](O)[C@@H](O)CN*; Dolaproine = CO[C@@H]([C@@H]1CCCN1)[C@@H](C)C(=O)O; X3 = O=C(COC1CCCCCc2c1nnn2CCOCCOCCOCCOCCOCCO)*; Dil = CC[C@H](C)[C@H](NC)[C@@H](CC(=O)O)OC; PABC = O=C(OCc1ccc(N[*:1])cc1)[*:2]; DBCO = C1#Cc2ccccc2N(*)Cc2ccccc21; X1 = C[C@@H](N*)[C@@H](O)c1ccccc1; Cit = NC(=O)NCCC[C@H](N)C(=O)O; PEG4 = NCCOCCOCCOCCOCCC(=O)O; Suc = O=C(CCC(=O)[*:2])[*:1]; NMeV = CN[C@H](C(=O)O)C(C)C

How the values were obtained:
[1] = physchem
Procedure: The DMSO solution (1 mg/mL, 0.5 mL) was diluted with water (4.5 mL) to generate solution A (0.1 mg/mL, 5 mL, 0.5 mg). Solution A (0.1 mg/mL, 0.5 mL) was diluted with water (4.5 mL) to generate solution B (0.01 mg/mL, 5 mL, 0.05 mg). Solution B (0.01 mg/mL, 0.5 mL) was diluted with water (4.5 mL) to generate solution C (1 μg/mL, 5 mL, 5 μg). Solution C (1 μg/mL, 0.5 mL) was diluted with water (4.5 mL) to generate solution D (0.1 μg/mL, 5 mL, 0.5 μg). The testing sample (0.05 mg) was suspended in water (1 mL), and was sonicated for 5-30 min to dissolve the sample. If no clear solution was observed, the resulting suspension was centrifuged and the clear supernatant solution was collected for analysis. All the standard solutions A, B, C, D and sample solutions were tested using same method on the same LC-MS instrument. Solubility was assessed by LCMS and calculated based on a standard curve.

[2] = pH stability in buffers, determined by LC-MS; type: physicochemical; settings: pH7.4 and 8 buffer, RT, Table 3-1
Procedure: pH stability was assessed as follows. 0.1 mg of sample was dissolved into 0.2-0.3 mL of DMSO, and the resulting solution was added dropwise into different pH buffers (1 mL) while maintain clear solutions during testing time period. The samples were collected from several time points (e.g., over 72 hours), and pH stability was determined by LC-MS. pH buffer was prepared as follows: pH 8.0 sodium borate buffer: Add 9.534 g Sodium borate decahydrate, 1.461 g Sodium chloride, and 0.393 g DTPA to 900 mL distilled water, make sure all powers dissolve completely, then make final volume to 1 L by adding water. pH 7.4 sodium borate buffer: Add […], 9.534 g Sodium borate decahydrate, 1.461 g Sodium chloride, and 0.393 g DTPA to 900 mL distilled water, make sure all powers dissolve completely, then make final volume to 1 L by adding water. pH 5.0 succinate acid buffer: Add 10 mM succinate acid to 150 mL distilled water, and then change the pH to pH5.0 by adding 0.5M NaOH, then make final volume to 250 mL by adding water. pH 7.4 PBS buffer: commercially available. Stability was assessed at 72 hours by LCMS.

[3] = target: Human liver Cathepsin B (Homo sapiens, UniProt P07858); experiment: Cathepsin B cleavage assay of linker-payloads; settings: Table 1D
Procedure: For the assay, the linker-payload stock solution (10 mM of linker-payload in DMSO) was added into a solution of 100 mM NaOAc, 10 mM dithiothreitol, at pH5 to obtain a 50 μM substrate solution. […] The Cathepsin B and substrate solution was mixed with and without 10 mM of a Cathepsin B inhibitor (CA074; APE Bio, Cat #A1926), and incubated at 37° C. for 4 hours. Following the 4 hour incubation, acetic acid and then acetonitrile were added to stop the reaction. The quenched samples then underwent centrifugation at 14,000 rpm. Aliquots of the resultant supernatants were then diluted with equal volume of water and analyzed by LC/MS to determine the amount of payload released.

In the case of `CC[C@H](C)[C@@H]([C@@H](CC(=O)N1CCC[C@H]1[C@H](OC)[C@@H](C)C(=O)N[C@H](C)[C@@H](O)c1ccccc1)OC)N(C)C(=O)[C@@H](NC(=O)[C@H](C(C)C)N(C)C(=O)OCc1ccc(NC(=O)[C@H](CCCNC(N)=O)NC(=O)[C@@H](NC(=O)[C@@H](CCCCNC(=O)COC2CCCCCc3c2nnn3CCOCCOCCOCCOCCOCCO)NC(=O)CCOCCOCCOCCOCCNC(=O)CCC(=O)N2Cc3ccccc3C#Cc3ccccc32)C(C)C)cc1)C(C)C` (some centres unmarked) [1a] ({DBCO-Suc-PEG4}-[dK](X3)V[Cit][PABC][NMeV]V[Dil][Dolaproine]-X1), the solubility [1] is reported as 170 µg/mL (≈ 75.3 µM) and the “pH Stability” value [2] is reported as “Y (stable in pH7.4 and 8 buffer at RT for more than 3 days)”.
For `CCCC1O[C@@H]2C[C@H]3[C@@H]4C[C@H](F)C5=CC(=O)C=C[C@]5(C)[C@@]4(F)[C@@H](O)C[C@]3(C)[C@]2(C(=O)COc2ccc(NC(=O)OCc3ccc(NC(=O)[C@H](CCCNC(N)=O)NC(=O)[C@@H](NC(=O)CCOCCOCCOCCOCCNC(=O)CCC(=O)N4Cc5ccccc5C#Cc5ccccc54)C(C)C)cc3)cc2)O1` (some centres unmarked) [10c], the “CapB cleavage rate (%) at 4 hrs” value [3] was less than 5%, the solubility ([1]; Solubility) was less than 10 µg/mL and the solubility ([1]; Solubility (mg/mL)) was less than 100 µg/mL. For the same compound, the “pH Stability” value [2] was “Y (stable in pH7.4 and 8 buffer at RT for more than 3 days)”.
With `CC[C@H](C)[C@@H]([C@@H](CC(=O)N1CCC[C@H]1[C@H](OC)[C@@H](C)C(=O)N[C@H](C)[C@@H](O)c1ccccc1)OC)N(C)C(=O)[C@@H](NC(=O)[C@H](C(C)C)N(C)C(=O)OCc1ccc(NC(=O)[C@H](CCCNC(N)=O)NC(=O)[C@@H](NC(=O)CCOCCOCCOCCOCCNC(=O)CCC(=O)N2Cc3ccccc3C#Cc3ccccc32)C(C)C)cc1)C(C)C` [10d] ({DBCO-Suc-PEG4}-V[Cit][PABC][NMeV]V[Dil][Dolaproine]-X1) the solubility [1] was less than 100 µg/mL and the “pH Stability” value [2] was “Y (stable in pH7.4 and 8 buffer at RT for more than 3 days)”.
With `CC[C@H](C)[C@@H]([C@@H](CC(=O)N1CCC[C@H]1[C@H](OC)[C@@H](C)C(=O)N[C@H](C)[C@@H](O)c1ccccc1)OC)N(C)C(=O)[C@@H](NC(=O)[C@H](C(C)C)N(C)C(=O)OCc1ccc(NC(=O)[C@H](CCCNC(N)=O)NC(=O)[C@@H](NC(=O)[C@@H](CCCCNC(=O)COC2CCCCCc3c2nnn3[C@@H]2O[C@H](CO)[C@H](O)[C@H](O)[C@H]2O)NC(=O)CCOCCOCCOCCOCCNC(=O)CCC(=O)N2Cc3ccccc3C#Cc3ccccc32)C(C)C)cc1)C(C)C` (some centres unmarked) [Ie-1] ({DBCO-Suc-PEG4}-[dK](X2)V[Cit][PABC][NMeV]V[Dil][Dolaproine]-X1) the “CapB cleavage rate (%) at 4 hrs” value [3] was 72%, the solubility [1] was 400 µg/mL (≈ 186 µM) and the “pH Stability” value [2] was “Y (stable in pH7.4 and 8 buffer at RT for more than 3 days)”.
For `CC[C@H](C)[C@@H]([C@@H](CC(=O)N1CCC[C@H]1[C@H](OC)[C@@H](C)C(=O)N[C@H](C)[C@@H](O)c1ccccc1)OC)N(C)C(=O)[C@@H](NC(=O)[C@H](C(C)C)N(C)C(=O)OCc1ccc(NC(=O)[C@H](CCCNC(N)=O)NC(=O)[C@@H](NC(=O)[C@@H](CCC(=O)NC[C@H](O)[C@@H](O)[C@H](O)[C@H](O)CO)NC(=O)CCOCCOCCOCCOCCNC(=O)CCC(=O)N2Cc3ccccc3C#Cc3ccccc32)C(C)C)cc1)C(C)C` [Ig] ({DBCO-Suc-PEG4}-[dE](NH(1-deoxy-D-glucityl))V[Cit][PABC][NMeV]V[Dil][Dolaproine]-X1), the “CapB cleavage rate (%) at 4 hrs” value [3] was 70%, the solubility [1] was 280 µg/mL (≈ 144 µM) and the “pH Stability” value [2] was “Y (stable in pH7.4 and 8 buffer at RT for more than 3 days)”.
